Experimental data taken from patent publication US9499550B2 (BRISTOL-MYERS SQUIBB COMPANY, priority 2012, dated 2016).
Where two headings read alike, the source gives them in different places.

Tests used:
[1] = system: HCV genotype 1b (Con1) replicon in HUH-7 cells; assay: HCV replicon luciferase reporter assay, genotype 1b; format: cell-based; conditions: Hepatitis C virus, Huh-7, 72 h, 3 days incubation, read-out: LE_1b (EC50, range)
In short: (§1)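 Replicon inhibition for both genotypes was measured as Renilla luciferase signal (EnduRen, 7.5 μM final, 2 h) after 3-day, 37° C exposure of replicon-bearing HUH-7 cells in 4% FCS DMEM, 0.5% DMSO. The 1b construct carries S1179I; the 1a H77 construct carries P1496L and S2204I. Twenty-point, 3-fold dilutions were fitted four-parametrically for EC50, and CC50 was taken from multiplexed Cell Titer-Blue.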

[2] = system: HCV genotype 1a (H77 strain) replicon in HUH-7 cells; assay: HCV replicon luciferase reporter assay, genotype 1a; format: cell-based; conditions: Hepatitis C virus, Huh-7, 72 h, 3 days incubation, read-out: LE_1a (EC50, range)
In short: as §1

[3] = HCV genotype 1b replicon luciferase
[4] = HCV genotype 1a replicon luciferase
[5] = HCV genotype 1b replicon luciferase assay, range class
[6] = HCV genotype 1a replicon luciferase assay, range class
[7] = GETYPE1B, HCV genotype 1b replicon luciferase
[8] = GETYPE1A, HCV genotype 1a replicon luciferase

Compound	EC50 [1, 3]	EC50 [2, 4]	other results
COc1ccc2c(O[C@@H]3C[C@H]4C(=O)N[C@]5(C(=O)NS(=O)(=O)C6CC6)C[C@H]5/C=C\CC[C@@H](C)C[C@@H](C)[C@H](NC(=O)OC(C)(C)C)C(=O)N4C3)nc(-c3ccc(N4CCOCC4)cc3)cc2c1 [Compound 5193, tert-butyl ((2R,6S,7R,9R,13aS,14aR,16aS,Z)-14a-((cyclopropylsulfonyl)carbamoyl)-2-((6-methoxy-3-(4-morpholinophenyl)isoquinolin-1-yl)oxy)-7,9-dimethyl-5,16-dioxo-1,2,3,5,6,7,8,9,10,11,13a,14,14a,15,16,16a-hexadecahydrocyclopropa[e]pyrrolo[1,2-a][1,4]diazacyclopentadecin-6-yl)carbamate]	< 5.46 nM	< 5.46 nM	
CC[C@@H]1C[C@H](C)CC/C=C\[C@@H]2C[C@@]2(C(=O)NS(=O)(=O)C2CC2)NC(=O)[C@@H]2C[C@@H](Oc3nccc4c(OC)cccc34)CN2C(=O)[C@H]1NC(=O)OC(C)(C)C [Compound 3026, tert-butyl ((2R,6S,7R,9R,13aS,14aR,16aS,Z)-14a-((cyclopropylsulfonyl)carbamoyl)-7-ethyl-2-((5-methoxyisoquinolin-1-yl)oxy)-9-methyl-5,16-dioxo-1,2,3,5,6,7,8,9,10,11,13a,14,14a,15,16,16a-hexadecahydrocyclopropa[e]pyrrolo[1,2-a][1,4]diazacyclopentadecin-6-yl)carbamate]			EC50 [1, 5]: < 5.46 nM; EC50 [2, 6]: < 5.46 nM
CCOc1cc2ccccc2c(O[C@@H]2C[C@H]3C(=O)N[C@]4(C(=O)NS(=O)(=O)C5(CF)CC5)C[C@H]4/C=C\CC[C@@H](C)C[C@@H](C)[C@H](NC(=O)OC(C)(C)C(C)(F)F)C(=O)N3C2)n1 [Compound 6114, 3,3-difluoro-2-methylbutan-2-yl((2R,6S,7R,9R,13aS,14aR,16aS,Z)-2-((3-ethoxyisoquinolin-1-yl)oxy)-14a-(((1-(fluoromethyl)cyclopropyl)sulfonyl)carbamoyl)-7,9-dimethyl-5,16-dioxo-1,2,3,5,6,7,8,9,10,11,13a,14,14a,15,16,16a-hexadecahydrocyclopropa[e]pyrrolo[1,2-a][1,4]diazacyclopentadecin-6-yl)carbamate]	0.1 to 0.5 nM	1.01 to 5 nM	
COc1ccc2c(O[C@@H]3C[C@H]4C(=O)N[C@]5(C(=O)NS(=O)(=O)C6(C)CC6)C[C@H]5/C=C\CC[C@H](C)C[C@@H](C)[C@H](NC(=O)O[C@@H]5C[C@@H]6C[C@@H]6C5)C(=O)N4C3)nc(N3CCOCC3)cc2c1 [Compound 3096, (1R,3r,5S)-bicyclo[3.1.0]hexan-3-yl((2R,6S,7R,9S,13aS,14aR,16aS,Z)-2-((6-methoxy-3-morpholinoisoquinolin-1-yl)oxy)-7,9-dimethyl-14a-(((1-methylcyclopropyl)sulfonyl)carbamoyl)-5,16-dioxo-1,2,3,5,6,7,8,9,10,11,13a,14,14a,15,16,16a-hexadecahydrocyclopropa[e]pyrrolo[1,2-a][1,4]diazacyclopentadecin-6-yl)carbamate]			EC50 [1, 5]: < 5.46 nM; EC50 [2, 6]: 4.82 to 103 nM
CC[C@@H]1C[C@H](C)CC/C=C\[C@@H]2C[C@@]2(C(=O)NS(=O)(=O)C2(C)CC2)NC(=O)[C@@H]2C[C@@H](Oc3nccc4cc(OC)c(F)cc34)CN2C(=O)[C@H]1NC(=O)C(C)(C)C(F)(F)F [Compound 4332, (2R,6S,7R,9R,13aS,14aR,16aS,Z)-7-ethyl-2-((7-fluoro-6-methoxyisoquinolin-1-yl)oxy)-9-methyl-N-((1-methylcyclopropyl)sulfonyl)-5,16-dioxo-6-(3,3,3-trifluoro-2,2-dimethylpropanamido)-1,2,3,5,6,7,8,9,10,11,13a,14,14a,15,16,16a-hexadecahydrocyclopropa[e]pyrrolo[1,2-a][1,4]diazacyclopentadecine-14a-carboxamide]	1.01 to 5 nM	1.01 to 5 nM	
C[C@@H]1CC/C=C\[C@@H]2C[C@@]2(C(=O)NS(=O)(=O)C2CC2)NC(=O)[C@@H]2C[C@@H](Oc3nccc4c5c(ccc34)OCCO5)CN2C(=O)[C@@H](NC(=O)O[C@@H]2C[C@@H]3C[C@@H]3C2)[C@H](C)C1 [Compound 5264, (1R,3r,5S)-bicyclo[3.1.0]hexan-3-yl((2R,6S,7R,9R,13aS,14aR,16aS,Z)-14a-((cyclopropylsulfonyl)carbamoyl)-2-((2,3-dihydro-[1,4]dioxino[2,3-f]isoquinolin-7-yl)oxy)-7,9-dimethyl-5,16-dioxo-1,2,3,5,6,7,8,9,10,11,13a,14,14a,15,16,16a-hexadecahydrocyclopropa[e]pyrrolo[1,2-a][1,4]diazacyclopentadecin-6-yl)carbamate]	< 5.46 nM	< 5.46 nM	
COc1cc2c(OC)cnc(O[C@@H]3C[C@H]4C(=O)N[C@]5(C(=O)NS(=O)(=O)C6(C(F)F)CC6)C[C@H]5/C=C\CC[C@@H](C)C[C@@H](C)[C@H](NC(=O)OC(C)(C)C(F)(F)F)C(=O)N4C3)c2cc1F [Compound 4095]			EC50 [1, 7]: < 5.46 nM; EC50 [2, 8]: < 5.46 nM
CC[C@@H]1C[C@H](C)CC/C=C\[C@@H]2C[C@@]2(C(=O)NS(=O)(=O)C2(CF)CC2)NC(=O)[C@@H]2C[C@@H](Oc3nccc4cc(OC)c(F)cc34)CN2C(=O)[C@H]1NC(=O)OC(C)(C)C(F)(F)F [Compound 4193]			EC50 [1, 7]: < 5.46 nM; EC50 [2, 8]: < 5.46 nM
CC[C@@H]1C[C@H](C)CC/C=C\[C@@H]2C[C@@]2(C(=O)NS(=O)(=O)C2CC2)NC(=O)[C@@H]2C[C@@H](Oc3nc4cc(OC(C)C)ccc4nc3C(F)(F)F)CN2C(=O)[C@H]1NC(=O)OC(C)(C)C(F)(F)F [Compound 4338]			EC50 [1, 7]: 1.01 to 5 nM; EC50 [2, 8]: 1.01 to 5 nM
COc1cc2nc(C(F)(F)F)c(OC)nc2cc1O[C@@H]1C[C@H]2C(=O)N[C@]3(C(=O)NS(=O)(=O)C4(C)CC4)C[C@H]3/C=C\CC[C@H](C)C[C@@H](C)[C@H](NC(=O)OC(C)(C)C(F)(F)F)C(=O)N2C1 [Compound 4354]			EC50 [1, 7]: 35 to 620 nM; EC50 [2, 8]: 35 to 620 nM
[2H]C([2H])([2H])C(OC(=O)N[C@@H]1C(=O)N2C[C@H](Oc3nnc(OC)c4ccccc34)C[C@H]2C(=O)N[C@]2(C(=O)NS(=O)(=O)C3(C)CC3)C[C@H]2/C=C\CC[C@@H](C)C[C@H]1CC)(C([2H])([2H])[2H])C(F)(F)F [Compound 5020]	< 5.46 nM	< 5.46 nM	
COc1ccc2c(O[C@@H]3C[C@H]4C(=O)N[C@]5(C(=O)NS(=O)(=O)C6(C)CC6)C[C@H]5/C=C\CC[C@H](C)C[C@@H](C)[C@H](NC(=O)OC5C[C@@H]6C[C@@H]6C5)C(=O)N4C3)nc(-c3ccc(OC(C)C)nc3)cc2c1 (stereo partly drawn) [Compound 5228, (1R,3r,5S)-bicyclo[3.1.0]hexan-3-yl((2R,6S,7R,9S,13aS,14aR,16aS,Z)-2-((3-(6-isopropoxypyridin-3-yl)-6-methoxyisoquinolin-1-yl)oxy)-7,9-dimethyl-14a-(((1-methylcyclopropyl)sulfonyl)carbamoyl)-5,16-dioxo-1,2,3,5,6,7,8,9,10,11,13a,14,14a,15,16,16a-hexadecahydrocyclopropa[e]pyrrolo[1,2-a][1,4]diazacyclopentadecin-6-yl)carbamate]	< 5.46 nM	4.82 to 103 nM	
COc1nnc(O[C@@H]2C[C@H]3C(=O)N[C@]4(C(=O)NS(=O)(=O)C5(C)CC5)C[C@H]4/C=C\CC[C@@H](C)C[C@@H](C)[C@H](NC(=O)O[C@@H]4C[C@@H]5C[C@@H]5C4)C(=O)N3C2)c2ccccc12 [Compound 5014, (1R,3r,5S)-bicyclo[3.1.0]hexan-3-yl((2R,6S,7R,9R,13aS,14aR,16aS,Z)-2-((4-methoxyphthalazin-1-yl)oxy)-7,9-dimethyl-14a-(((1-methylcyclopropyl)sulfonyl)carbamoyl)-5,16-dioxo-1,2,3,5,6,7,8,9,10,11,13a,14,14a,15,16,16a-hexadecahydrocyclopropa[e]pyrrolo[1,2-a][1,4]diazacyclopentadecin-6-yl)carbamate]	< 5.46 nM	< 5.46 nM	
COc1ccc2c(O[C@@H]3C[C@H]4C(=O)N[C@]5(C(=O)NS(=O)(=O)C6(C)CC6)C[C@H]5/C=C\CC[C@H](C)C[C@@H](C)[C@H](NC(=O)c5ccc(N(C)C)cc5)C(=O)N4C3)nccc2c1 [Compound 5180, (2R,6S,7R,9S,13aS,14aR,16aS,Z)-6-(4-(dimethylamino)benzamido)-2-((6-methoxyisoquinolin-1-yl)oxy)-7,9-dimethyl-N-((1-methylcyclopropyl)sulfonyl)-5,16-dioxo-1,2,3,5,6,7,8,9,10,11,13a,14,14a,15,16,16a-hexadecahydrocyclopropa[e]pyrrolo[1,2-a][1,4]diazacyclopentadecine-14a-carboxamide]	< 5.46 nM	< 5.46 nM	
CCOc1ccc2c(O[C@@H]3C[C@H]4C(=O)N[C@]5(C(=O)NS(=O)(=O)C6(C)CC6)C[C@H]5/C=C\CC[C@@H](C)C[C@@H](C)[C@H](NC(=O)OC(C)(C)C)C(=O)N4C3)nccc2c1 [Compound 5134, tert-butyl ((2R,6S,7R,9R,13aS,14aR,16aS,Z)-2-((6-ethoxyisoquinolin-1-yl)oxy)-7,9-dimethyl-14a-(((1-methylcyclopropyl)sulfonyl)carbamoyl)-5,16-dioxo-1,2,3,5,6,7,8,9,10,11,13a,14,14a,15,16,16a-hexadecahydrocyclopropa[e]pyrrolo[1,2-a][1,4]diazacyclopentadecin-6-yl)carbamate]	< 5.46 nM	< 5.46 nM	
